9 compounds from patent US5648381A, “Derivatives of indan-1,3-dione and indan-1,2,3-trione, methods of preparing them and therapeutic use thereof” (Innothera, priority 1992, dated 1997) can be followed below.

Data set [1] in a line: Free radical trapping (DPPH) effect. As to conditions: in vitro, DPPH model. An excerpt:
(§1) In the in vitro test, the compounds were solubilised in aqueous solution, either pure or containing DMSO or alcohol.
The overall "free radical trapping" effect was studied in vitro in a model using 1,1-diphenyl-2-picrylhydrazyl (DPPH) as stable free radical, the method being derived from that described by Lamaison et al., Plantes Medic. et phytotheraphie, XXII, 1988, 231-234.
(In general: DPPH is a stable violet radical that fades when it is reduced.)

Data set [2] relates to saphena veins of rabbits. Put plainly: Contraction of isolated saphena veins produced by depolarisation (KCl, hyperpotassic solution). Conditions: KCl 40 mM, compound 10 nM to 30 μM, rabbit; for EC50: Oryctolagus cuniculus, read-out: ED50 for increase in contractions of the saphena veins produced by KCl. As for the experimental part:
as §1
The contractile effect was measured in vitro:
by the contractile force exerted by vascular rings, either quiescent or stimulated (electrically or by physiological agents) and maintained under isometric conditions, and
The formula (A) compounds and their salts, if any, increase the contraction of animal saphena veins produced by noradrenalin and depolarisation (hyperpotassic solution) without in most cases affecting the arterial contractile responses. For example, 2-hydroxy-2-(2-methoxybenzoyl hydrazino)-indan-1,3-dione and the compound in Example 22 (10 nM to 30 μM) produce a more than 50% increase (ED50 ±0.3 microM) in contractions of the saphena veins of rabbits produced by KCl (40 mM).

Data set [3] concerns oedema and leucocyte migration in the pleural cavity. The experiment in a line: Carrageenin-induced pleurisy in the rat. Type of data set: in vivo. As to conditions: intraperitoneally twice 20 mg/kg, six hours after carrageenin. As for the experimental part:
(§2) In the in vivo test, the products were administered intravenously in the form of a pure aqueous solution or intraperitoneally in the form of an aqueous solution optionally containing DMSO or orally in solution or in suspension in carboxymethyl cellulose or in a composite aqueous solution containing Tween® and DMSO in certain cases.
The compounds in Examples 1, 3 and 11 and 2-hydroxy-2-(3-methoxybenzoyl hydrazino)-indan-1,3-dione reduce vascular permeability by 10 to 50% when measured one to two hours after intraperitoneal administration of 5-20 mg/kg and 2 to 4 hours after oral administration of 5-20 mg/kg to the rat. The compound in Example 9 and 2-isonicotinoyl hydrazonoindan-1,3-dione, administered intraperitoneally twice in doses of 20 mg/kg, inhibit oedema and leucocyte migration in the pleural cavity, six hours after injection of carrageenin in the model of pleurisy in the rat.

The nature of data set [4]: Toxicity, single oral administration to the mouse. Type of data set: in vivo. Conditions: 1 g/kg. From the text:
The formula (A) compounds and their salts if any have very low toxicity.

Data set [5] deals with basic venous tone of the rat. Put plainly: Basic venous tone and arterial pressure in vivo (normal and after cardiac arrest). Conditions: 1 to 3 picomols intravenously. As for the experimental part:
as §2
In vivo, the arterial and venous pressure was measured under normal conditions and after cardiac arrest. During cardiac arrest, the venous tone was calculated from the venous and arterial pressure measured at equilibrium and corrected in dependence on the relative differences in compliance between these two networks (Samar and Coleman, Am. J. Physiol., 1978, 234:H94-100; Yamamoto et al., Am. J. Physiol., 1980, 238:H823-828).

Take `COc1ccc2c(=O)c(=NNc3cccc(F)c3)c(=O)c2c1` [2-(3-fluorophenyl hydrazono)-5-methoxyindan-1,3-dione]: the maximum anti-radical effect result in data set [1] is listed as “more than 95%”.
Take `COc1ccccc1C(=O)NNC1(O)C(=O)c2ccccc2C1=O` [2-hydroxy-2-(2-methoxybenzoyl hydrazino)-indan-1,3-dione]: in data set [2], the “increase in contractions of the saphena veins produced by KCl” value is given as “more than 50%” and the EC50 was about 300 nM.
On to `O=C(NN=c1c(=O)c2ccccc2c1=O)c1ccncc1` [2-isonicotinoyl hydrazonoindan-1,3-dione], for which, in data set [3], the “inhibition of leucocyte migration in the pleural cavity” value is listed as “inhibit” and the inhibition of oedema entry is recorded as “inhibit”.
On to `O=c1c(=NNc2ccccc2)c(=O)c2ccccc12` [2-phenyl hydrazonoindan-1,3-dione], for which the deaths entry in data set [4] is “no deaths”. Moreover, in data set [4] (in certain cases), the observed effects entry was “coloured diarrhoea and coloured urine”.
In the case of `O=C(NNC1(O)C(=O)c2ccccc2C1=O)c1ccccc1` [Example 3, 2-benzoyl hydrazino-2-hydroxy-indan-1,3-dione], the “increase in the basic venous tone” value in data set [5] is recorded as “more than 20%”.
As for `Cc1ccccc1C(=O)NNC1(O)C(=O)c2ccccc2C1=O` [Example 6, 2-hydroxy-2-(2-methylbenzoylhydrazino)-indan-1,3-dione], in data set [5], the “effect on arterial pressure” value is reported as “without affecting the arterial pressure” and the “increase in the basic venous tone” value is “more than 20%”.
For the compound `O=C(NNC1(O)C(=O)c2ccccc2C1=O)c1ccccc1O` [Example 9, 2-hydroxy-2-(2-hydroxybenzoylhydrazino)-indan-1,3-dione], in data set [1], the maximum anti-radical effect entry is listed as “more than 95%”. Moreover, in data set [3], the “inhibition of leucocyte migration in the pleural cavity” value is recorded as “inhibit” and the inhibition of oedema result is given as “inhibit”.
Take `COc1ccc(C(=O)NNC2(O)C(=O)c3ccccc3C2=O)cc1OC` [Example 11, 2-(3,4-dimethoxybenzoylhydrazino)-2-hydroxyindan-1,3-dione]: in data set [5], the “effect on arterial pressure” value was “without affecting the arterial pressure” and the “increase in the basic venous tone” value is “more than 20%”.
Turning to `COC(=O)NN=c1c(=O)c2ccccc2c1=O` [Example 22, 2-methoxycarbonyl hydrazonoindan-1,3-dione], in data set [2], the “increase in contractions of the saphena veins produced by KCl” value was “more than 50%” and the EC50 is about 300 nM.
